Experimental data reported in patent US9161944B2, “Method for preventing cancer metastasis” (INSERM (INSTITUT NATIONAL DE LA SANTE ET DE LA SANTE ET DE …, priority 2010, dated 2015).

How the values were obtained:
MDA-MB-435s (SK3+) = assay: Cell migration / 2D motility assay (transwell inserts, wound healing); assay type: cell-based, human
Text: Alternatively, the cell migration inhibitory activity of a compound of formula (I) may be assessed by performing a Wound Healing assay that is disclosed in the examples herein and for which the one skilled in the art may also refer to the article of Rodriguez et al. (2005, Methods Biol Mol, Vol. 294: 23-29). The wound-healing assay is simple, inexpensive, and one of the earliest developed methods to study directional cell migration in vitro. This method mimics cell migration during wound healing in vivo. The basic steps involve creating a “wound” in a cell monolayer, capturing the images at the beginning and at regular intervals during cell migration to close the wound, and comparing the images to quantify the migration rate of the cells. It is particularly suitable for studies on the effects of cell-matrix and cell-cell interactions on cell migration. Cells are seeded in culture dishes and grown until confluence in DMEM supplemented with 10% foetal calf serum. The monolayer is then scratched with a sterile yellow pipette tip. Then, migration of cells to the cleared area is inspected under a microscope. Pictures are taken directly at the time of scratching and after 24 h, so as to determine the ability of the tested cells to migrate.
Wound healing assay: Cells were seeded in culture dishes and grown until confluence in DMEM supplemented with 10% foetal calf serum. The monolayer was scratched with a sterile yellow pipette tip. The migration of cells to the cleared area was inspected under a microscope. Pictures were taken directly at the time of scratching and after 24 h.
At least three independent experiments were each performed in triplicate.

IKCa = target: T1, IKCa (Homo sapiens, UniProt O15554); assay: Whole-cell K+ currents in HEK293 cells expressing recombinant IKCa; assay type: cell-based; settings: 10 μM, FIG. 9B
T1 construct: expressed in transfected cells; host or cells: HEK293
Experimental: FIG. 9. Selectivity effect of JPH1701 on SKCa subtype and on IKCa channels. FIG. 9A) Example of whole-cell K^+ currents recorded in HEK293 cells expressing recombinants SK1, SK2, SK3 and IKCa channels before and after application of 10 μM JPH1701 (upper graphs: SK1 and SK2 respectively, bottom graphs: SK3 and IKCa respectively). Currents were generated by ramp protocol from −100 mV to +60 mV in 500 ms from a constant holding of 0 mV and with a pCa 6. FIG. 9B) Histograms showing the effect of 10 μM JPH1701 on SKCa (SK1, SK2, SK3) and IKCa current amplitudes recorded at 0 mV. […] For each channel (SK1, SK2, SK3 and IKCa) the left column (pale grey) represents the control result and the right column (dark grey) represents the result after JPH1701 application.
The selectivity of JPH1701 toward the others members of the SKCa/IKCa channels was tested. […] The experimental protocol was similar to the one used in FIG. 8. JPH1701 was tested for membrane potential from +60 mV to −100 mV on 500 msec.

[1] = test system: endogenously HEK potassium current; assay: Endogenous HEK potassium current (patch clamp); assay type: cell-based; settings: applied concentration range; data not shown
Experimental: Whatever the concentration tested approximately 40 sec was needed to reduce 50% of the amplitude of the current. […] Increasing intracellular calcium concentration by the addition of 5 μM A23187 totally reversed the effect of JPH1701 (data not shown).

PAF receptor = PAF receptor (Homo sapiens, UniProt P25105); assay: 3H-C16-PAF binding, membrane homogenates of CHO cells; parameters: expressed in transfected cells; host or cells: CHO cells (membrane homogenates); settings: 0.3 and 2 μM, FIG. 11A
Experimental: FIG. 11: Effects of JPH1701 on PAF receptor, PLC and PKCs activities. FIG. 11A) Histogram showing the percentage of control specific binding of 3H-C16-PAF to recombinant PAF receptor obtained from membrane homogenates of CHO cells by 0.3 and 2 μM edelfosine and by 0.3 and 2 μM JPH1701. FIG. 11B) Histogram showing the percentage of control agonist response (% effect i.e: increase of intracellular calcium concentration) of 0.3 and 2 μM edelfosine and JPH1701 on PAF receptor normalized to the response induced by 100 nM C16-PAF. […] FIG. 11C-D) Dose responses curves showing the effect of JPH1701 on PKCs (FIG. 11C, PKCs are: alpha, Beta 1, Beta 2, Gamma, Delta, Epsilon, Zeta, Eta, Theta, Iota) and PhosphoLipase C (PLC) activities (FIG. 11D).

Chain of PAF receptor (P25105 whole entry): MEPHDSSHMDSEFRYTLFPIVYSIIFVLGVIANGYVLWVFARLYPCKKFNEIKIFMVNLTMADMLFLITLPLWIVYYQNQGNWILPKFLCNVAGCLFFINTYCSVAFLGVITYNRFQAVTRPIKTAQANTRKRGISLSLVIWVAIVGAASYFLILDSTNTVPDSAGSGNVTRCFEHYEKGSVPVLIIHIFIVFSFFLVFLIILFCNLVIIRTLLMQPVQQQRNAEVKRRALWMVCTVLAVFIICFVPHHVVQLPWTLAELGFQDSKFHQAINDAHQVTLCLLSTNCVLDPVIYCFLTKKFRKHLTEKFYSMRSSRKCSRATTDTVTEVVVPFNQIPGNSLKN
T1 sequence (O15554 whole entry): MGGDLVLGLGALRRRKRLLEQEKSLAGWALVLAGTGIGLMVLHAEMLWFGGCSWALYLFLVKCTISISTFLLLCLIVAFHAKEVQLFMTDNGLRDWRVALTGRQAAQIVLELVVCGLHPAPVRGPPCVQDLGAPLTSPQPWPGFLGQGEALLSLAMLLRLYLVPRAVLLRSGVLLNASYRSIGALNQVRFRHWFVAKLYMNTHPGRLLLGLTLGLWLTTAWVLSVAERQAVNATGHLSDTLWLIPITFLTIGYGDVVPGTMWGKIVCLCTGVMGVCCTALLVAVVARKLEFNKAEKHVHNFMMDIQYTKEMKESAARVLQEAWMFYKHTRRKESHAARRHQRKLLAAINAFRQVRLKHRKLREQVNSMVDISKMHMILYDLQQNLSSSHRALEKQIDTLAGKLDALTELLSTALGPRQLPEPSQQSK

## hexadecyloxy-2-O-methyl-sn-glycerol-lactose [JPH1701]
MDA-MB-435s (SK3+); MDA-MB-435s shRD, FIG. 6E
  Effect on motility of cells with shRNA random (SK3+) compared with wild type: same inhibition effect
MDA-MB-435s (SK3+); MDA-MB-435s wild type, FIG. 6A
  Concentration from which cell migration is inhibited: ≥ 10 nM
  Concentration of maximal effect on cell migration: around 1 μM
MDA-MB-435s (SK3+); Table 1, concentration 300 nM
  Cell Migration inhibition of MDA-MB-435s (SK3+), Inhibitory effect: 50%
MDA-MB-435s (SK3+); Table 2, concentration 300 nM
  Migration (% of inhibition): 50%
MDA-MB-435s (SK3+); summary of table 2
  Effect on cell migration: even more effective
IKCa
  Effect on IKCa currents: inactive
[1]
  Effect on endogenous HEK potassium current: not significantly affected
PAF receptor
  Interaction with C16-PAF binding site of PAF receptor: unable to interact
